Assay results as given in patent US20250296938A1, “Compounds that Interact with the Ras Superfamily for the Treatment of Cancers, Inflammatory Diseases, Rasopathies, and Fibrotic Disease” (SHY Therapeutics, LLC, priority 2018, published 2025).
Like-named read-outs stand apart in the source and are kept apart here.

What was measured:
[1] = test system: MIA PaCa-2 pancreatic cancer cell line; test: Cell proliferation assay (DAPI); type: cell-based; details: Homo sapiens; for inhibition at 10 µM: read-out: % Inhibition of cell proliferation, MIA PaCa-2 % inh
Description: Cell lines: Human NSCLC cells NCI-H1975 and NCI-H1299, and tumor-derived pancreatic cancer cell lines Panc-1, MIA-PACA2, and BxPC3, were all purchased from American Type Culture Collection and grown in complete RPMI medium (BxPC3, NCI-H1975 and NCI-H1299) or DMEM-High Glucose (Panc1 and MIA-PaCa-2), supplemented with penicillin (100 U/mL), streptomycin (100 μg/mL), and 10% heat-inactivated FBS at 37° C. in a humidified incubator with 5% CO2.
Method: Cells were plated at 2000 to 5000 cells/well density in 96-wells plate and cultured ON. Small molecules to be tested were added to the cells in the final concentration of 10 µM in the presence of 0.3% DMSO and 10% FBS, and incubated for 2-4 days at 37° C. in a humidified incubator with 5% CO2. For IC50 value determination, serial dilutions of compounds were added to cells under the same conditions.
Assay: At the end of the incubation period, cell cultures were fixed with a 50-50 mixture (v/v) acetone-methanol for 10 minutes at −20° C., followed by rehydration in PBS for 10 minutes at room temperature. DNA total content was determined by staining cells with DAPI (1 ug/ml) in PBS for 10 minutes at room temperature, followed by 3 washes with PBS. After staining, DAPI fluorescence was recorded (358 nm excitation/461 nm emission) with the 96-well plate reader Molecular Devices Spectramax M3; degree of small molecule-dependent proliferation inhibition was calculated from raw data.

[2] = target: T1, KRas G12D mutant (Homo sapiens, UniProt P01116, G12D); test: Ras GTP binding domain inhibition assay (Cy3-GTP/Cy5-GTP competition); details: at 20 μM
T1 construct: fused on or other part: His tag, used for capture on nickel-coated plates
Summary of the method: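 Compounds tested at 20 μM or in serial dilution for IC50 against nickel-captured His-tagged GTPase, 3 hours at room temperature, with or without His-Sos GEF added for last hour. Fluorescent GTP then added at 100 nM for 45 minutes; wells washed, bound label measured by fluorescence.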

[3] = target: Rho-A (Homo sapiens, UniProt P61586); test: as above
Summary of the method: (§1)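 First, His-tagged protein is coated on nickel wells overnight at 4 °C. Next, compound (20 μM single point or serial dilution) is added for 3 h at room temperature, with or without Sos exchange factor in the last hour. Finally, 100 nM labelled GTP binds for 45 min and retained signal is measured.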

[4] = target: Rac-1 (Homo sapiens, UniProt P63000); test: as above
Summary of the method: as §1

SMILES	inhibition at 10 µM ([1]; 2-4 days, MIA PaCa-2) [%]	other results
CN(Cc1ccccc1)Cc1nc(-c2ccccn2)nc(O)c1O	0	–
Cn1ccc(-c2sc3nc(-c4nccn4C)nc(N[C@@H]4CC[C@H](O)C4)c3c2-c2ccccc2)n1 (racemic) [drawing 644]	–	inhibition at 10 µM ([1]; MIA PaCa-2 (Table 5A)): 26 to 50%; IC50 ([1]; MIA PaCa-2 (Table 5A)): > 1000 nM
COc1cccc(-c2csc3c(O)nc(-c4nccn4C)nc23)c1Cl [drawing 528]	76 to 100	IC50 ([1]; MIA PaCa-2): > 1000 nM
Cn1ccnc1-c1nc(O)c2scc(-c3ccccn3)c2n1 [drawing 529]	76 to 100	–
Oc1nc(-c2ncc3n2CCCC3)nc2c(-c3ccccn3)csc12 [drawing 530]	76 to 100	–
Oc1nc(-c2cn3ccccc3n2)nc2c(-c3ccccn3)csc12 [drawing 531]	76 to 100	–
COCCn1ccnc1-c1nc(O)c2scc(-c3ccccn3)c2n1 [drawing 532]	76 to 100	–
Cc1cc(Cn2ccnc2-c2nc(O)c3scc(-c4ccccn4)c3n2)on1 [drawing 533]	76 to 100	–
Oc1nc(-c2nccn2Cc2ccccn2)nc2c(-c3ccccn3)csc12 [drawing 534]	76 to 100	–
COc1cccc(Cn2ccnc2-c2nc(O)c3scc(-c4ccccn4)c3n2)c1 [drawing 535]	76 to 100	–
Cc1cnc(-c2nc(O)c3scc(-c4ccccn4)c3n2)n1C [drawing 536]	76 to 100	–
Cc1cn(C)c(-c2nc(O)c3scc(-c4ccccn4)c3n2)n1 [drawing 537]	76 to 100	–
Oc1nc(-c2ncc3ccccn23)nc2c(-c3ccccn3)csc12 [drawing 538]	76 to 100	–
Oc1nc(-c2cn3cccnc3n2)nc2c(-c3ccccn3)csc12 [drawing 539]	0	–
Oc1nc(-c2cn(-c3ccccc3)cn2)nc2c(-c3ccccn3)csc12 [drawing 540]	76 to 100	–
COc1ccc(Cn2cnc(-c3nc(O)c4scc(-c5ccccn5)c4n3)c2)cc1 [drawing 541]	76 to 100	–
COCCCN(C)c1nc(-c2nccn2C)nc2sc(-c3ccn(C)n3)c(-c3ccccc3)c12 [drawing 543]	76 to 100	IC50 ([1]; MIA PaCa-2): > 1000 nM
Cn1ccc(-c2sc3nc(-c4nccn4C)nc(NC4CCOCC4)c3c2-c2ccccc2)n1 [drawing 546]	1 to 25	IC50 ([1]; MIA PaCa-2): > 1000 nM
Cn1ccc(-c2sc3nc(-c4nccn4C)nc(N4CCC5(CCOC5)C4)c3c2-c2ccccc2)n1 (stereo not drawn) [drawing 551]	26 to 50	IC50 ([1]; MIA PaCa-2): > 1000 nM
COC1CCN(c2nc(-c3nccn3C)nc3sc(-c4ccn(C)n4)c(-c4ccccc4)c23)CC1 [drawing 552]	76 to 100	IC50 ([1]; MIA PaCa-2): > 1000 nM

SMILES	inhibition at 10 µM ([1]; 2-4 days, MIA PaCa-2) [%]	other results
COCCCNc1nc(-c2nccn2C)nc2sc(-c3ccn(C)n3)c(-c3ccc(OC)cc3)c12 [drawing 553]	76 to 100	IC50 ([1]; MIA PaCa-2): > 1000 nM
COCC(C)Nc1nc(-c2nccn2C)nc2sc(-c3ccn(C)n3)c(-c3ccc(OC)cc3)c12 (stereo not drawn) [drawing 554]	76 to 100	IC50 ([1]; MIA PaCa-2): > 1000 nM
COc1ccc(-c2c(-c3ccn(C)n3)sc3nc(-c4nccn4C)nc(N4CCC(OC)C4)c23)cc1 (stereo not drawn) [drawing 555]	76 to 100	IC50 ([1]; MIA PaCa-2): > 1000 nM
COC1CCN(c2nc(-c3nccn3C)nc3sc(-c4ccccc4Cl)c(-c4cscn4)c23)C1 (stereo not drawn) [drawing 557]	76 to 100	–
COc1cccc(-c2sc3nc(-c4nccn4C)nc(N4CCC(OC)C4)c3c2-c2cscn2)c1 (stereo not drawn) [drawing 559]	76 to 100	IC50 ([1]; MIA PaCa-2): > 1000 nM
COCCNc1nc(-c2nccn2C)nc2sc(-c3cc(OC)ccc3Cl)c(-c3ccc(OC)cc3)c12 [drawing 563]	76 to 100	IC50 ([1]; MIA PaCa-2): > 1000 nM
COCCNc1nc(-c2cn(C)cn2)nc2sc(-c3cccc(OC)c3Cl)c(-c3ccc(OC)cc3)c12 [drawing 565]	76 to 100	–
COCCNc1nc(-c2cn(C)cn2)nc2sc(-c3cc(OC)ccc3Cl)c(-c3ccc(OC)cc3)c12 [drawing 566]	76 to 100	–
COCCNc1nc(-c2nccn2C)nc2sc(-c3cc(OC)ccc3Cl)c(-c3ccccc3)c12 [drawing 568]	76 to 100	IC50 ([1]; MIA PaCa-2): > 1000 nM
COc1cc(-c2sc3nc(-c4nccn4C)nc(N4CCC(OC)C4)c3c2-c2ccccc2)ccn1 (stereo not drawn) [drawing 569]	76 to 100	–
COC1CCN(c2nc(-c3nccn3C)nc3sc(-c4ccnn4C)c(-c4ccccc4)c23)C1 (stereo not drawn) [drawing 570]	26 to 50	–
COC1CCN(c2nc(-c3nccn3C)nc3sc(-c4cccnc4)c(-c4ccccc4)c23)C1 (stereo not drawn) [drawing 571]	76 to 100	–
COc1ccc(-c2sc3nc(-c4nccn4C)nc(N4CCC(OC)C4)c3c2-c2ccccc2)cn1 (stereo not drawn) [drawing 572]	76 to 100	–
COc1ncccc1-c1sc2nc(-c3nccn3C)nc(N3CCC(OC)C3)c2c1-c1ccccc1 (stereo not drawn) [drawing 573]	76 to 100	–
COC1CCN(c2nc(-c3nccn3C)nc3sc(-c4cnc(C5CC5)o4)c(-c4ccccc4)c23)C1 (stereo not drawn) [drawing 574]	76 to 100	–
COCCn1cc(-c2sc3nc(-c4nccn4C)nc(N4CCC(OC)C4)c3c2-c2ccccc2)cn1 (stereo not drawn) [drawing 575]	76 to 100	–
COC1CCN(c2nc(-c3nccn3C)nc3sc(-c4ccncc4C)c(-c4ccccc4)c23)C1 (stereo not drawn) [drawing 576]	76 to 100	–
COC1CCN(c2nc(-c3nccn3C)nc3sc(-c4cnn(C)c4)c(-c4ccccc4)c23)C1 (stereo not drawn) [drawing 577]	76 to 100	–
COC1CCN(c2nc(-c3nccn3C)nc3sc(-c4ccc(CO)cc4)c(-c4ccccc4)c23)C1 (stereo not drawn) [drawing 578]	76 to 100	–
COC1CCN(c2nc(-c3nccn3C)nc3sc(-c4ccc(N)nc4C)c(-c4ccccc4)c23)C1 (stereo not drawn) [drawing 579]	76 to 100	–

SMILES	inhibition at 10 µM ([1]; 2-4 days, MIA PaCa-2) [%]	other results
COC1CCN(c2nc(-c3nccn3C)nc3sc(-c4ccccc4CO)c(-c4ccccc4)c23)C1 (stereo not drawn) [drawing 580]	76 to 100	–
COc1nscc1-c1sc2nc(-c3nccn3C)nc(N3CCC(OC)C3)c2c1-c1ccccc1 (stereo not drawn) [drawing 581]	76 to 100	–
COC1CCN(c2nc(-c3nccn3C)nc3sc(-c4ccnc(N(C)C)c4)c(-c4ccccc4)c23)C1 (stereo not drawn) [drawing 582]	76 to 100	–
COC1CCN(c2nc(-c3nccn3C)nc3sc(Br)c(-c4ccccc4)c23)C1 (stereo not drawn) [drawing 583]	76 to 100	–
COc1ccc(-c2c(-c3cccc(OC)c3F)sc3nc(-c4nccn4C)nc(N4CCC(OC)C4)c23)cc1 (stereo not drawn) [drawing 584]	76 to 100	–
COCC1CN(c2nc(-c3nccn3C)nc3sc(-c4cccc(OC)c4F)c(-c4ccc(OC)cc4)c23)C1 [drawing 585]	76 to 100	–
COc1cccc(-c2sc3nc(-c4nccn4C)nc(N4CCC(OC)C4)c3c2-c2ccccc2)c1F (stereo not drawn) [drawing 586]	76 to 100	–
COc1c(O)nc(-c2ccccn2)nc1Oc1cnn(C)c1 [drawing 587]	0	–
COc1c(O)nc(-c2ccccn2)nc1Oc1ccc2ncccc2c1 [drawing 588]	1 to 25	–
COc1c(O)nc(-c2ccccn2)nc1Oc1cccnc1 [drawing 589]	0	–
COc1cccc(Oc2nc(-c3ccccn3)nc(O)c2OC)c1 [drawing 590]	0	–
COc1ccc(Oc2nc(-c3ccccn3)nc(O)c2OC)cc1 [drawing 591]	26 to 50	–
COCCc1ccc(Oc2nc(-c3ccccn3)nc(O)c2OC)cc1 [drawing 592]	76 to 100	–
COc1c(O)nc(-c2ccccn2)nc1Oc1ccccc1 [drawing 593]	76 to 100	–
O=C(c1nc(-c2ccccn2)nc(O)c1O)N1CCc2ccccc2C1 [drawing 594]	1 to 25	–
O=C(c1nc(-c2ccccn2)nc(O)c1O)N1CCOCC1 [drawing 595]	0	–
O=C(NCc1ccccc1)c1nc(-c2ccccn2)nc(O)c1O [drawing 597]	26 to 50	–
CO[C@H]1CC[C@@H](Nc2nc(-c3nccn3C)nc3sc(C(=O)N4CCOCC4)c(-c4ccccc4)c23)C1 [drawing 1062]	–	inhibition at 20 µM ([2]; with SOS, read-out: KRas G12D mutant + SOS: % inh.): 51 to 75%; inhibition at 20 µM ([2]; without SOS, read-out: KRas G12D mutant: % inh.): 76 to 100%; inhibition at 20 µM ([3]; with SOS, read-out: Rho-A + SOS: % inh.): 76 to 100%; inhibition at 20 µM ([3]; without SOS, read-out: Rho-A: % inh.): 76 to 100%; inhibition at 20 µM ([4]; with SOS, read-out: Rac-1 + SOS: % inh.): 76 to 100%; inhibition at 20 µM ([4]; without SOS, read-out: Rac-1: % inh.): 76 to 100%
